The values that follow are results of earlier work, collected in patent EP2525785B1, “SUSTAINED RELEASE TABLET FORMULATION CONTAINING ETODOLAC” (Turgut Laclari A.S., priority 2010, dated 2011).

Structures are written as SMILES.

For this data set the following is noted: below pH 3.

For `CCc1cccc2c3c([nH]c12)C(CC)(CC(=O)O)OCC3` (stereo not shown) [Etodolac, 2-(1,8-diethyl-4,9-dihydro-3H-pyrano[3,4-b]indole-1-il)acetic acid], the solubility entry is reported as “low solubility”.
